Drawing on the METLIN SMRT retention time set (Domingo-Almenara et al. 2019), this text covers RP-LC retention time for 59 molecules.

Molecules are shown by their SMILES.

A short description of this data set: gradient 5% acetonitrile 3 min, to 50% in 2 min, to 85% in 15 min, held 3 min, 100 µL/min. The note with it: column: Zorbax Extend-C18 2.1 x 50 mm; eluents: water / acetonitrile, 0.1% formic acid. An outline of the steps:
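The system's dead and dwell volumes were 40 μL and 900 μL, with a Zorbax Extend-C18 column (2.1 × 50 mm, 1.8 μm) run at 100 μL/min in water and acetonitrile containing 0.1% formic acid each. Pure standards were analyzed in mixtures of ~100 molecules by HPLC–quadrupole time-of-flight mass spectrometry in positive and negative ionization mode. Retention time was assigned from computationally picked, manually inspected adduct peaks.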
The molecule `CCOc1cc(C(=O)NC2CCN(c3cc(-c4ccc(OC)cc4)[nH]n3)C2)cc(OCC)c1OCC` (centres undefined) displayed an RP-LC retention time of 806 s. Take `COc1ccc(C)cc1NC(=O)N1CCc2cn(C)c3cccc(c23)C1`: the RP-LC retention time was determined as 822 s. Molecule `CN(C)CC1(O)CCC2(CCN(Cc3ccc(Cl)c(F)c3)CC2)CC1` came in with an RP-LC retention time of 658 s. The molecule `CCn1nccc1C(=O)NC(C)(C)c1nc2c(c(C(N)=O)n1)OCO2` gave an RP-LC retention time of 614 s. Then `CCCCOc1ccc(NC(=O)c2cc(=O)c3cc(Cl)c(C)cc3o2)c2cccnc12`, with 824 s. Then `Cc1c(Cl)cccc1NC(=O)N1C[C@@H](F)C[C@H]1C(=O)N1CCCCC1`, with 718 s; and `CCOc1ccc(-c2noc(Cc3nc(-c4ccccc4)cs3)n2)cc1`, with 1240 s; and `COc1ccc(C2(C(=O)N3CCC(c4nc(-c5cccn5C)no4)C3)CC2)cc1` (centres undefined), with 910 s. Molecule `COc1ccc(CNC(=O)NCC2(CO)CC2)cc1OC` yielded an RP-LC retention time of 590 s.

Regarding `CC(C)CC(=O)NCC(c1ccccc1Cl)c1c[nH]c2ccccc12` (centres undefined), the RP-LC retention time stood at 984 s. As for `COc1ccc(-c2cnn3c(C)cc(C)nc23)cc1S(=O)(=O)NCCN(C)C`, the figure is 616 s; as for `O=C(O)c1ccc(-c2c[nH]c3ncc(-c4ccccc4)cc23)cc1C1CCCC1`, 700 s. As for `CCSc1nc2ccc(NS(=O)(=O)c3ccc(Cl)cc3)cc2s1`, the figure is 1070 s; as for `CC(CNC(=O)CN1C(=O)CCCc2ccccc21)c1ccccc1` (centres undefined), 836 s; as for `CCOc1ccccc1NC(=O)Cn1nc2c(Oc3ccccc3C)nccn2c1=O`, 935 s. As for `COCC(=O)Nc1cnc(-c2ccccc2)nc1`, the figure is 729 s; as for `CCCN1C(=O)c2cc(C(=O)NCc3ccccc3)nn2CC1(C)C(=O)NC1CCCC1` (centres undefined), 605 s; as for `CCc1ccc(N2CC(c3noc(-c4cnccn4)n3)CC2=O)cc1` (centres undefined), 760 s. In turn, `O=C(CN1CC=C(c2cnn(-c3ccc(F)cc3)c2)CC1)NCC1CCCO1` (centres undefined) had an RP-LC retention time of 628 s. The molecule `O=C(Cn1ccnc1-c1ccnc(N2CCSCC2)c1)NC1CCCC1` displayed an RP-LC retention time of 619 s. As for `CCCC(=O)Nc1ccc2c(c1)CN(C(=O)c1ccc(Cl)cc1)C(C(=O)N(C)C)C2` (centres undefined), the figure is 748 s; as for `CN(C)CC1(O)CCC2(CCN(C(=O)C3CCCC3)CC2)CC1`, 591 s.

`CC(C)CCNC(=O)C1CCN(c2cncnc2N2CCN(C)CC2)CC1` yielded an RP-LC retention time of 561 s.

Regarding `CCCOc1nc2ccccc2nc1N1CCCC(C(=O)Nc2cc(Cl)ccc2OC)C1` (centres undefined), the RP-LC retention time stood at 611 s. Then `CC1(C)SC(C)(C)N(C=O)C1C(=O)O` (centres undefined), with 708 s; and `O=c1ccc(-c2ccc3c(c2)OCO3)nn1CCc1nc(-c2ccc(F)cc2)no1`, with 927 s. Then `CCc1ccc(S(=O)(=O)N2C[C@@H]3C(=O)N(C(CC)c4cccs4)C(=O)[C@@H]3C2)cc1` (some centres undefined), with 1070 s. Molecule `COc1ccc(-c2ccnn2-c2ccc(SCc3ccc(F)cc3)nn2)cc1` displayed an RP-LC retention time of 738 s. Then `CN(C(=O)c1ccncc1)c1ccccc1`, with 667 s; and `CN(Cc1ccco1)C(=O)CC1CCN(C(=O)c2cc3cc(Cl)ccc3[nH]2)CC1`, with 897 s. As for `COc1ccccc1NC(=O)C1CCN(S(=O)(=O)c2c(C)nn(-c3ccccc3)c2C)CC1`, the figure is 981 s; as for `O=C(c1ccco1)N1CCN(C(=O)c2nc(-c3ccc(Cl)cc3)n3c2CCCCC3)CC1`, 741 s; as for `CCn1c(C(=O)N2CCN(c3cccc(C)c3C)CC2)cc2sccc21`, 1070 s. Then `O=C1NC2(CCN(C(=O)NCCc3ccccc3)CC2)Nc2c(Cl)cccc21`, with 773 s; and `O=C(c1ccco1)N1CCCn2nc(-c3ccncc3)cc2C1`, with 560 s. `CCc1nc(-c2csc(S(=O)(=O)N3CCCC(C(=O)NCc4cccs4)C3)c2)no1` (centres undefined) came in with an RP-LC retention time of 952 s.

For the molecule `CCN1CCC(N(Cc2cccs2)C(=O)Nc2ccccc2Br)CC1`, the RP-LC retention time was 679 s. `CCCN1CCN(C(=O)Cn2ccc3ccc(-c4nnc(C)o4)cc32)CC1`: the RP-LC retention time turned out to be 589 s. As for `Nc1nc(-c2ccc(F)cc2)nn1C(=O)c1ccc(F)cc1`, the figure is 969 s; as for `CCc1ccc(Nc2nc(C(=O)N3CCOCC3)nc3ccccc23)cc1`, 771 s; as for `Cc1ccc(NC(=O)N2CCN(CCn3cnc4cccnc43)CC2)c(C)c1`, 594 s. As for `Cc1cccc(NS(=O)(=O)c2c[nH]c3ncccc23)c1C`, the figure is 762 s; as for `CCOC(=O)c1sc(NC(=O)C2CCCCN2S(=O)(=O)c2cccs2)cc1C` (centres undefined), 962 s; as for `O=C(CCC1CCCC1)N1CCC(c2noc(-c3ccc(Cl)cc3)n2)CC1`, 1320 s. In turn, `CCN1C(=O)c2ccccc2Oc2ccc(C(=O)N3CCN(c4cccc(C)c4)C(C)C3)cc21` (centres undefined) displayed an RP-LC retention time of 1020 s. `COc1ccc(Cl)cc1S(=O)(=O)N1CCC(C(=O)NCCO)CC1` returned an RP-LC retention time of 629 s. As for `O=C(NC1CC1)c1ccc(OCC2CCCN(C(=O)c3ccc(F)cc3)C2)cc1` (centres undefined), the figure is 803 s; as for `COc1cccc(-c2noc(Cc3nnc(-c4cc(F)cc(F)c4)o3)n2)c1OC`, 968 s.

Regarding `CCOCc1nc(C2CCCN2C(=O)Nc2ccsc2C(=O)OC)no1` (centres undefined), the RP-LC retention time was 626 s.

`CCc1cccc(NC(=O)CN2C(=O)CCc3cc(S(=O)(=O)N4CCCCC4C)ccc32)c1` (centres undefined) returned an RP-LC retention time of 998 s. Molecule `O=C(Nc1ccc(Cl)cc1)C1CCCN(S(=O)(=O)c2c[nH]c(C(=O)N3CCCC3)c2)C1` (centres undefined) yielded an RP-LC retention time of 862 s. On to `O=C(N1c2ccccc2CC1c1nnc(C2CCOCC2)o1)C1(c2ccccc2)CC1` (centres undefined), for which the RP-LC retention time amounted to 841 s. Take `O=C(N[C@H]1C[C@@H]2C[C@H]1CN2S(=O)(=O)c1ccc2c(c1)OCCO2)c1ccccc1`: the RP-LC retention time stood at 803 s. Take `O=C(CCc1nnn2c1CN(C(=O)Nc1ccc3c(c1)OCCO3)CC2)N1CCCC1`: the RP-LC retention time is 625 s. Then `COc1ccc(N2CC(c3nc(-c4ccc5c(c4)oc(=O)n5C(C)C)no3)CC2=O)cc1` (centres undefined), with 915 s; and `O=C1NC2(CCN(C(=O)NCc3cccc(F)c3)CC2)Nc2cc(Cl)ccc21`, with 770 s.

In turn, `O=C(CCc1ccc2nc(-c3ccccc3)[nH]c2c1)N1CCC(N2CCCCC2)CC1` showed an RP-LC retention time of 559 s. In turn, `Cn1cc(CCN2CCN(S(=O)(=O)c3cccs3)CC2)c2cccnc21` showed an RP-LC retention time of 604 s.

Molecule `COc1ccc(-c2cc3c(=O)n(Cc4nc(-c5ccc(OC)cc5OC)oc4C)ccn3n2)cc1` displayed an RP-LC retention time of 1020 s.
